Common to all, as to type: cell-based, mouse
Assay [1] concerns Hedgehog Signaling Pathway. The experiment in a line: Gli-Luc reporter gene cell assay in C3H10T1/2/Gli-Luc cells stimulated with Shh. Particulars: 30 nM Shh, luciferase activity (RLU), read-out: IC50 values of compounds that inhibit Hh pathway. Put shortly:
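C3H10T1/2 cells stably carrying Gli-responsive luciferase were seeded overnight, then treated 24 h at 37 °C with compound (7-point dilution series, DMSO control) plus Shh (30 nM in added medium). Lysate luciferase RLU fitted against log concentration to derive IC50.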

Assay [2] deals with Hedgehog Signaling Pathway. The assay is described as follows: SHH-induced differentiation of C3H10T1/2 cells into osteoblastic cells, intracellular alkaline phosphatase activity. As to conditions: 10 nM SHH-N, 5 days, alkaline phosphatase activity (OD405), read-out: IC50 values of compounds that inhibit Hh pathway. The method, boiled down: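 Mouse C3H10T1/2 cells were induced with 10 nM SHH-N alongside test compound (10 μM–10 nM) for 5 days at 37 °C. Cells were lysed in 0.2% Triton, and alkaline phosphatase activity was read at OD405 over 30 min at 37 °C with the background reading subtracted. IC50 came from a nonlinear fit against log concentration.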

The test system of assay [3] is Hedgehog Signaling Pathway. The assay is described as follows: SAG-induced differentiation of C3H10T1/2 cells into osteoblastic cells, intracellular alkaline phosphatase activity. Particulars: 1 μM SAG, 5 days, alkaline phosphatase activity (OD405), read-out: IC50 values of compounds that inhibit Hh pathway. Put shortly: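 Mouse C3H10T1/2 cells were induced with SAG and exposed to compound (10 μM to 1 nM) for 5 days at 37 °C. Cells were lysed in 0.2% Triton, and alkaline phosphatase activity was read as OD405 over 30 min at 37 °C in pH 9.8 substrate buffer. IC50 came from a non-linear fit of background-subtracted OD405 against log concentration.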

Where [4] appears, read: Mus musculus, C3H 10T1/2, 120 h.

In general, IC50 refers to the midpoint of a concentration-inhibition curve.

On to `C[C@@H]1CN(c2ccc(C(=O)Nc3ccc(Cl)c(-c4ncc(-c5ccco5)[nH]4)c3)c(Cl)c2)C[C@H](C)N1C` [Example 144, N-(3-(5-(furan-2-yl)-1H-imidazol-2-yl)-4-chlorophenyl)-2-chloro-4-((3S,5R)-3,4,5-trimethylpiperazin-1-yl)benzamide], for which the half-maximal inhibitory concentration (IC50) in assay [1] (Mus musculus, C3H 10T1/2, 24 h) is 0.15 nM; in assay [2] (setting [4]), 0.82 nM; in assay [3] (setting [4]) it was 17 nM.
The matching figures for `Cc1cc(N2C[C@@H](C)N(C)[C@@H](C)C2)ccc1C(=O)Nc1ccc(Cl)c(-c2ncc(-c3ccco3)[nH]2)c1` [Example 145, N-(3-(5-(furan-2-yl)-1H-imidazol-2-yl)-4-chlorophenyl)-2-methyl-4-((3S,5R)-3,4,5-trimethylpiperazin-1-yl)benzamide]: 0.38 nM, 0.93 nM and 3.3 nM.
For `C[C@@H]1CN(c2ccc(C(=O)Nc3ccc(Cl)c(-c4ncc(-c5ccco5)[nH]4)c3)c(C(F)(F)F)c2)C[C@H](C)N1C` [Example 146, N-(3-(5-(furan-2-yl)-1H-imidazol-2-yl)-4-chlorophenyl)-2-(trifluoro-methyl)-4-((3S,5R)-3,4,5-trimethylpiperazin-1-yl)benzamide], the IC50 in assay [1] (Mus musculus, C3H 10T1/2, 24 h) was 0.39 nM; in assay [2] (setting [4]), 0.49 nM; in assay [3] (setting [4]), 25 nM.
The like results for `Cc1c(C(=O)Nc2ccc(Cl)c(-c3ncc(-c4ccco4)[nH]3)c2)ccc(N2C[C@@H](C)N(C)[C@@H](C)C2)c1F` [Example 148, N-(3-(5-(furan-2-yl)-1H-imidazol-2-yl)-4-chlorophenyl)-2-methyl-3-fluoro-4-((3S,5R)-3,4,5-trimethylpiperazin-1-yl)benzamide] were, in that order, 0.26 nM, 0.33 nM and 15 nM.
Turning to `C[C@@H]1CN(c2cc(Cl)c(C(=O)Nc3ccc(Cl)c(-c4ncc(-c5ccco5)[nH]4)c3)cc2F)C[C@H](C)N1C` [Example 149, N-(3-(5-(furan-2-yl)-1H-imidazol-2-yl)-4-chlorophenyl)-2-chloro-5-fluoro-4-((3S,5R)-3,4,5-trimethylpiperazin-1-yl)benzamide], the IC50 in assay [1] (Mus musculus, C3H 10T1/2, 24 h) was 0.28 nM; in assay [2] (setting [4]), 0.27 nM; in assay [3] (setting [4]), 15 nM.
For the compound `C[C@@H]1CN(c2ccc(C(=O)Nc3ccc(Cl)c(-c4ncc(-c5nccs5)[nH]4)c3)c(Cl)c2)C[C@H](C)N1C` [Example 153, N-(3-(5-(thiazol-2-yl)-1H-imidazol-2-yl)-4-chlorophenyl)-2-chloro-4-((3S,5R)-3,4,5-trimethylpiperazin-1-yl)benzamide], the IC50 is 8.7 nM in assay [1] (Mus musculus, C3H 10T1/2, 24 h); 34 nM in assay [2] (setting [4]); 280 nM in assay [3] (setting [4]).
The matching figures for `Cc1cc(N2C[C@@H](C)N(C)[C@@H](C)C2)ccc1C(=O)Nc1ccc(Cl)c(-c2ncc(-c3nccs3)[nH]2)c1` [Example 154, N-(3-(5-(thiazol-2-yl)-1H-imidazol-2-yl)-4-chlorophenyl)-2-methyl-4-((3S,5R)-3,4,5-trimethylpiperazin-1-yl)benzamide]: 6.7 nM, 22 nM and 178 nM.
On to `C[C@@H]1CN(c2ccc(C(=O)Nc3ccc(Cl)c(-c4ncc(-c5cccs5)[nH]4)c3)c(C(F)(F)F)c2)C[C@H](C)N1C` [Example 155, N-(3-(5-(thiophen-2-yl)-1H-imidazol-2-yl)-4-chlorophenyl)-2-(trifluoro-methyl)-4-((3S,5R)-3,4,5-trimethylpiperazin-1-yl)benzamide], for which the IC50 was 0.22 nM in assay [1] (Mus musculus, C3H 10T1/2, 24 h); 0.11 nM in assay [2] (setting [4]); 13 nM in assay [3] (setting [4]).
The matching figures for `Cc1c(C(=O)Nc2ccc(Cl)c(-c3ncc(-c4cccs4)[nH]3)c2)ccc(N2C[C@@H](C)N(C)[C@@H](C)C2)c1F` [Example 156, N-(3-(5-(thiophen-2-yl)-1H-imidazol-2-yl)-4-chlorophenyl)-2-methyl-3-fluoro-4-((3S,5R)-3,4,5-trimethylpiperazin-1-yl)benzamide]: 0.21 nM, 0.2 nM and 7 nM.
Regarding `C[C@@H]1CN(c2cc(Cl)c(C(=O)Nc3ccc(Cl)c(-c4ncc(-c5cccs5)[nH]4)c3)cc2F)C[C@H](C)N1C` [Example 157, N-(3-(5-(thiophen-2-yl)-1H-imidazol-2-yl)-4-chlorophenyl)-2-chloro-5-fluoro-4-((3S,5R)-3,4,5-trimethylpiperazin-1-yl)benzamide], the IC50 was determined as 0.23 nM in assay [1] (Mus musculus, C3H 10T1/2, 24 h); 0.15 nM in assay [2] (setting [4]); 10 nM in assay [3] (setting [4]).
For the compound `CCN1[C@H](C)CN(c2ccc(C(=O)Nc3ccc(Cl)c(-c4ncc(-c5cccs5)[nH]4)c3)c(Cl)c2)C[C@@H]1C` [Example 158, N-(3-(5-(thiophen-2-yl)-1H-imidazol-2-yl)-4-chlorophenyl)-2-chloro-4-((3S,5R)-4-ethyl-3,5-dimethylpiperazin-1-yl)benzamide], the IC50 was 0.3 nM in assay [1] (Mus musculus, C3H 10T1/2, 24 h); 0.42 nM in assay [2] (setting [4]); 8.2 nM in assay [3] (setting [4]).
In the case of `CC(C)N1[C@H](C)CN(c2ccc(C(=O)Nc3ccc(Cl)c(-c4ncc(-c5cccs5)[nH]4)c3)c(Cl)c2)C[C@@H]1C` [Example 159, N-(3-(5-(thiophen-2-yl)-1H-imidazol-2-yl)-4-chlorophenyl)-2-chloro-4-((3S,5R)-4-isopropyl-3,5-dimethylpiperazin-1-yl)benzamide], the IC50 worked out at 0.31 nM in assay [1] (Mus musculus, C3H 10T1/2, 24 h); 0.36 nM in assay [2] (setting [4]); 10 nM in assay [3] (setting [4]).
Turning to `CS(=O)(=O)c1ccc(C(=O)Nc2ccc(Cl)c(-c3ncc(-c4cccs4)[nH]3)c2)c(Cl)c1` [Example 160, N-(3-(5-(thiophen-2-yl)-1H-imidazol-2-yl)-4-chlorophenyl)-2-chloro-4-(methylsulfonyl)benzamide], the IC50 in assay [1] (Mus musculus, C3H 10T1/2, 24 h) was 6.5 nM; in assay [2] (setting [4]), above 10000 nM; in assay [3] (setting [4]), 66 nM.
On to `Cc1cc(N2C[C@@H](C)N(C)[C@@H](C)C2)ccc1C(=O)Nc1ccc(Cl)c(-c2ncc[nH]2)c1` [Example 166, N-(3-(1H-imidazol-2-yl)-4-chlorophenyl)-2-methyl-4-((3S,5R)-3,4,5-trimethylpiperazin-1-yl)benzamide], for which the IC50 in assay [1] (Mus musculus, C3H 10T1/2, 24 h) is 11 nM; in assay [2] (setting [4]), 47 nM; in assay [3] (setting [4]), 347 nM.
Regarding `Cc1cc(N2C[C@@H](C)N(C)[C@@H](C)C2)ccc1C(=O)Nc1ccc(Cl)c(-c2ncc(C(C)C)[nH]2)c1` [Example 170, N-(3-(5-isopropyl-1H-imidazol-2-yl)-4-chlorophenyl)-2-methyl-4-((3S,5R)-3,4,5-trimethylpiperazin-1-yl)benzamide], the IC50 in assay [1] (Mus musculus, C3H 10T1/2, 24 h) stood at 0.22 nM; in assay [2] (setting [4]), 0.22 nM; in assay [3] (setting [4]) it was 30 nM.
Regarding `CCCc1cnc(-c2cc(NC(=O)c3ccc(N4C[C@@H](C)N(C)[C@@H](C)C4)cc3C)ccc2Cl)[nH]1` [Example 172, N-(3-(5-propyl-1H-imidazol-2-yl)-4-chlorophenyl)-2-methyl-4-((3S,5R)-3,4,5-trimethylpiperazin-1-yl)benzamide], the IC50 in assay [1] (Mus musculus, C3H 10T1/2, 24 h) worked out at 17 nM; in assay [2] (setting [4]), 45 nM; in assay [3] (setting [4]) it was 127 nM.
With `CCCc1cnc(-c2cc(NC(=O)c3ccc(N4C[C@@H](C)N(C)[C@@H](C)C4)cc3Cl)ccc2Cl)[nH]1` [Example 173], the IC50 in assay [1] (24 hours) came to 15 nM; in assay [2], 60 nM; in assay [3], 165 nM.
Take `Cc1cc(N2C[C@@H](C)N(C)[C@@H](C)C2)ccc1C(=O)Nc1ccc(Cl)c(-c2ncc(C(C)(C)C)[nH]2)c1` [Example 174, N-(3-(5-tert-butyl-1H-imidazol-2-yl)-4-chlorophenyl)-2-methyl-4-((3S,5R)-3,4,5-trimethylpiperazin-1-yl)benzamide]: the IC50 in assay [1] (Mus musculus, C3H 10T1/2, 24 h) turned out to be 5.7 nM; in assay [2] (setting [4]) it was 11 nM; in assay [3] (setting [4]) it was 91 nM.
As to `C[C@@H]1CN(c2ccc(C(=O)Nc3ccc(Cl)c(-c4ncc(C(C)(C)C)[nH]4)c3)c(Cl)c2)C[C@H](C)N1C` [Example 175, N-(3-(5-tert-butyl-1H-imidazol-2-yl)-4-chlorophenyl)-2-chloro-4-((3S,5R)-3,4,5-trimethylpiperazin-1-yl)benzamide], the IC50 in assay [1] (Mus musculus, C3H 10T1/2, 24 h) was 7.6 nM; in assay [2] (setting [4]), 6.1 nM; in assay [3] (setting [4]), 176 nM.
In the case of `C[C@@H]1CN(c2ccc(C(=O)Nc3ccc(Cl)c(-c4ncc(C5CC5)[nH]4)c3)c(Cl)c2)C[C@H](C)N1C` [Example 176, N-(3-(5-cyclopropyl-1H-imidazol-2-yl)-4-chlorophenyl)-2-chloro-4-((3S,5R)-3,4,5-trimethylpiperazin-1-yl)benzamide], the half-maximal inhibitory concentration (IC50) in assay [1] (Mus musculus, C3H 10T1/2, 24 h) came to 0.97 nM; in assay [2] (setting [4]), 3.9 nM; in assay [3] (setting [4]), 7.2 nM.
For `Cc1cc(N2C[C@@H](C)N(C)[C@@H](C)C2)ccc1C(=O)Nc1ccc(Cl)c(-c2ncc(C3CC3)[nH]2)c1` [Example 177, N-(3-(5-cyclopropyl-1H-imidazol-2-yl)-4-chlorophenyl)-2-methyl-4-((3S,5R)-3,4,5-trimethylpiperazin-1-yl)benzamide], the IC50 in assay [1] (Mus musculus, C3H 10T1/2, 24 h) was determined as 0.67 nM; in assay [2] (setting [4]), 1 nM; in assay [3] (setting [4]) it was 23 nM.
